Values after ≈ are worked out from the molar mass of the structure shown. Active and inactive are the calls of the source.

The results in this text go back to ChEMBL document CHEMBL3991944, “Enantiomers of spiro-oxindole compounds and their uses as therapeutic agents” (2013).

A short description of series [1]: Solubility of the compound in 60:40 of labrasol/capryol 90. It counts as physicochemical.
Series [2] concerns Homo sapiens. Briefly: Toxicity in human assessed as mortality at 4 to 8% (w/w) administered topically as ointment for 21 consecutive days during phase-1 clinical trial. The settings on record: topical_or_ocular.
For series [3], the system named is Homo sapiens. Kind of series: Toxicity in human assessed as serious adverse events at 4 to 8% (w/w) administered topically as ointment for 21 consecutive days during phase-1 clinical trial. The settings on record: topical_or_ocular.
The test system of series [4] is Homo sapiens. Kind of series: Toxicity in human assessed as change in pulse rate at 4 to 8% (w/w) administered topically as ointment for 21 consecutive days during phase-1 clinical trial. The settings on record: topical_or_ocular.
Series [5] in a line: Solubility of the compound in 60:40 of labrasol/PEG 400. Format: physicochemical.
In series [6] the test system is Rattus norvegicus. Briefly: Analgesic activity in rat model of CFA-induced chronic inflammatory pain assessed as reduction in nociceptive threshold at 200 mg/kg, po by Von Frey filament assay. Format: functional, organism-based.
In series [7] the test system is Homo sapiens. Briefly: Toxicity in human assessed as change in vital signs at 4 to 8% (w/w) administered topically as ointment for 21 consecutive days during phase-1 clinical trial. The settings on record: topical_or_ocular.
Series [8] has as its system Homo sapiens. Briefly: Toxicity in human assessed as decrease in skin irritation at 4 to 8% (w/w) administered topically as ointment for 21 consecutive days measured 7 days post last dose during phase-1 clinical trial. The settings on record: topical_or_ocular, 168 h.
Series [9] concerns Homo sapiens. Briefly: Toxicity in human assessed as change in quiescent resting state at 4 to 8% (w/w) administered topically as ointment for 21 consecutive days during phase-1 clinical trial. The settings on record: topical_or_ocular.
Series [10] relates to Rattus norvegicus. Kind of series: Analgesic activity in rat model of CFA-induced chronic inflammatory pain assessed as increase in Von Frey mechanical paw withdrawal threshold at 8% (w/v) administered topically by electrovonfrey anesthesiometry relative to baseline. It counts as functional.
Series [11] in a line: Solubility of the compound in PEG 400. Format: physicochemical.
Series [12] relates to Homo sapiens. Briefly: Toxicity in human assessed as decrease in skin irritation at 4 to 8% (w/w) administered topically as ointment for 21 consecutive days during phase-1 clinical trial. The settings on record: topical_or_ocular.
Series [13] deals with Sodium channel protein type 9 subunit alpha (Homo sapiens) (UniProt Q15858). The settings on record: HEK293.
For series [14], the system named is Homo sapiens. Briefly: Toxicity in human assessed as change in physical appearance at 4 to 8% (w/w) administered topically as ointment for 21 consecutive days during phase-1 clinical trial. The settings on record: topical_or_ocular.
The nature of series [15]: Solubility of the compound in capryol 90. Format: physicochemical.
A short description of series [16]: Solubility of the compound in labrasol. It counts as physicochemical.
Series [17] concerns Homo sapiens. Kind of series: Analgesic activity in human assessed as dental pain relief at 500 mg administered as single dose measured 4 to 12 hrs post dose. Format: functional.
The test system of series [18] is Homo sapiens. Briefly: Toxicity in human assessed as change in laboratory assessments at 4 to 8% (w/w) administered topically as ointment for 21 consecutive days during phase-1 clinical trial. The settings on record: topical_or_ocular.
Series [19] has as its system Homo sapiens. Briefly: Toxicity in human assessed as change in QTc interval at 4 to 8% (w/w) administered topically as ointment for 21 consecutive days during phase-1 clinical trial. The settings on record: topical_or_ocular.
Series [20] concerns Rattus norvegicus. Briefly: Analgesic activity in rat model of chronic constriction injury-induced neuropathic pain assessed as reversal of pain response at 2% (w/v) administered topically as ointment measured upto 1 hr by electrovonfrey anesthesiometry. Format: functional.
A short description of series [21]: Solubility of the compound in 60:40 of labrasol/transcutol. It counts as physicochemical.
Series [22] in a line: Solubility of the compound in tween 80. Format: physicochemical.
For series [23], the species on record is Homo sapiens. Kind of series: Toxicity in human assessed as increase in discomfort at 0.1% compound solution for 4 consecutive days during phase-1 clinical trial.
Series [24] is described as follows: Solubility of the compound in propylene glycol. Format: physicochemical.
Series [25] deals with Rattus norvegicus. Briefly: Drug level in rat model of CFA-induced chronic inflammatory pain assessed as high plasma concentration at 200 mg/kg, po […]. It counts as ADME, organism-based. The settings on record: in vivo.

Sodium channel protein type 9 subunit alpha (Homo sapiens), sequence (Q15858 whole entry, looked up): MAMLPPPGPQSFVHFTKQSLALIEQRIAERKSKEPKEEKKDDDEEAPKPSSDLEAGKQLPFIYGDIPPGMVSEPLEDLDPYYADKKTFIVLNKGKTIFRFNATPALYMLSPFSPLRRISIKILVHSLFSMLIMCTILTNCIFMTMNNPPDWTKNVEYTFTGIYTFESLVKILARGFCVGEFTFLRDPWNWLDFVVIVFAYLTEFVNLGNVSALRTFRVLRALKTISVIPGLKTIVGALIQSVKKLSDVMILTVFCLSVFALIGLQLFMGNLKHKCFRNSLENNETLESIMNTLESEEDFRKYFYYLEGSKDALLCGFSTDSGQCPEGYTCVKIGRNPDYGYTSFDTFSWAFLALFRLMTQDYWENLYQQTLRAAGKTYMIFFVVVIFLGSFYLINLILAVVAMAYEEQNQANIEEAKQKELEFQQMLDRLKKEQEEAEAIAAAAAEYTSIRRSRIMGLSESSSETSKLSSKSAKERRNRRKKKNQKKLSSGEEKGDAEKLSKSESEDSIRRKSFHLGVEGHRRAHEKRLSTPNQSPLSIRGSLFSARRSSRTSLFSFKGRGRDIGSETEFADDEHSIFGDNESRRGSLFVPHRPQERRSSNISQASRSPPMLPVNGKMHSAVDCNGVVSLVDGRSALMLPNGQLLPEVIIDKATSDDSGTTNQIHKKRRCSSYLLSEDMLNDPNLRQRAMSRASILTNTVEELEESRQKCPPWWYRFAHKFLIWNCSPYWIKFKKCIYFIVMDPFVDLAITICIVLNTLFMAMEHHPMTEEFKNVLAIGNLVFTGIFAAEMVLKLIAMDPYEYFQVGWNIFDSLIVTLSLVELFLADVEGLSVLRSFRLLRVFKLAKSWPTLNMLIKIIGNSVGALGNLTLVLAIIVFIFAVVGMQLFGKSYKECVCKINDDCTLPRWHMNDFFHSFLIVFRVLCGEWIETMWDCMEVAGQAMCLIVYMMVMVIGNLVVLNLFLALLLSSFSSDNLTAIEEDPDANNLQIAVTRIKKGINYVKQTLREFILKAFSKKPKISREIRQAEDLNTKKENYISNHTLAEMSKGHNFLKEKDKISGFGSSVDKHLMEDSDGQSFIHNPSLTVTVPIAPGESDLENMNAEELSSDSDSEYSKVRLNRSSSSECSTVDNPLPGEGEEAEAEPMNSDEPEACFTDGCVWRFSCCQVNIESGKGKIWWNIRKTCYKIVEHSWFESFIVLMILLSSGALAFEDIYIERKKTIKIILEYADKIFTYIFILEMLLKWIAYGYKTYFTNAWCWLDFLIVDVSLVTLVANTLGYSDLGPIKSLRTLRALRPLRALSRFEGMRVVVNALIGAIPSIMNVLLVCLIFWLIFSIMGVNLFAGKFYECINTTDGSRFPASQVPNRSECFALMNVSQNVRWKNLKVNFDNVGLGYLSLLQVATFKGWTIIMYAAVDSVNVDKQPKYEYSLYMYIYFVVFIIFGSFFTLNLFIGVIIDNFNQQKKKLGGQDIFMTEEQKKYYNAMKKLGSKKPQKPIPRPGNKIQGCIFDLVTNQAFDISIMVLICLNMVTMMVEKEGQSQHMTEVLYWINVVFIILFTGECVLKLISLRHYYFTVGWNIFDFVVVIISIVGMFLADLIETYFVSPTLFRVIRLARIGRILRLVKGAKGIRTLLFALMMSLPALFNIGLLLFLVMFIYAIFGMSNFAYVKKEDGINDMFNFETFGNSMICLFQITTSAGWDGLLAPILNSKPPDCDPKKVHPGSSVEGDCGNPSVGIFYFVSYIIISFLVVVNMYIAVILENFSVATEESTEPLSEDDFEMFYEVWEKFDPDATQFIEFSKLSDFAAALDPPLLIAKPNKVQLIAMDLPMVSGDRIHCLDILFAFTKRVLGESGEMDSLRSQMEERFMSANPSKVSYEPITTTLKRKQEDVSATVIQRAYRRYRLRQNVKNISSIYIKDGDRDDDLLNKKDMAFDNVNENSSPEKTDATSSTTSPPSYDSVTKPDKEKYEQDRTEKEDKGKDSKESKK

Consider `O=C1N(Cc2ccc(C(F)(F)F)o2)c2ccccc2[C@]12COc1cc3c(cc12)OCO3` [FUNAPIDE], for which the solubility in [1] is 191 mg/mL (≈ 445 mM); in series [5], 182 mg/mL (≈ 424 mM); in series [11], more than 55 mg/mL; in series [15] it was 96 mg/mL (≈ 224 mM); in series [16], 231 mg/mL (≈ 538 mM); in [21] it was 186 mg/mL (≈ 433 mM). In series [22], the solubility is more than 123 mg/mL. The Activity result with Homo sapiens [2], in the series on Homo sapiens [3], in the series on Homo sapiens [4], with Homo sapiens [7], with Homo sapiens [8] and in the series on Homo sapiens [9] was “Non-Toxic” each time. For the same compound, the Activity is 45.06 - 45.1% with Rattus norvegicus [10]; “Non-Toxic” in the series with Homo sapiens [12]; “Non-Toxic” in the series with Homo sapiens [14]; “Non-Toxic” in the series on Homo sapiens [18]; “Non-Toxic” with Homo sapiens [19]. In addition, the result in the series with Rattus norvegicus [6], with Homo sapiens [17] and in the series with Rattus norvegicus [20] was Active. In addition, the Kr in series [13] is more than 10 µM.
`CCCCCCCCCCCCOS(=O)(=O)[O-].[Na+]` [SODIUM LAURYL SULFATE]: the Activity result in the series filed under Homo sapiens [23] is listed as “Toxic”.
With `O=C1N(Cc2ccc(C(F)(F)F)o2)c2ccccc2C12COc1cc3c(cc12)OCO3` (configuration not stated), the solubility in series [1] is 44.4 mg/mL (≈ 103 mM); in series [5], 70.4 mg/mL (≈ 164 mM); in [11], less than 50 mg/mL; in series [24], 2.7 mg/mL (≈ 6.29 mM); in [15], 18.1 mg/mL (≈ 42.2 mM); in series [16], 72.5 mg/mL (≈ 169 mM). Moreover, the solubility in series [21] amounted to 74.2 mg/mL (≈ 173 mM); in [22], 64 mg/mL (≈ 149 mM). Further, the Kr in [13] was more than 10 µM. Also, the result in the series with Rattus norvegicus [20] was Active.
`O=C1N(Cc2ccc(C(F)(F)F)o2)c2ccccc2[C@@]12COc1cc3c(cc12)OCO3`: the result in the series on Rattus norvegicus [6] was Active. In the series with Rattus norvegicus [25], the Drug uptake entry was “Active”. For the same compound, the Kr in series [13] was more than 10 µM. In addition, the result in the series with Rattus norvegicus [20] was inactive.
